Measurements: patent US8796256B2 (Janssen Pharmaceutica NV, priority 2010, dated 2014)

Target: T1, ERR1 (also known as ERR-α or ERR-1) (Homo sapiens, UniProt P11474)
T1 sequence (P11474 193-421 limits assumed): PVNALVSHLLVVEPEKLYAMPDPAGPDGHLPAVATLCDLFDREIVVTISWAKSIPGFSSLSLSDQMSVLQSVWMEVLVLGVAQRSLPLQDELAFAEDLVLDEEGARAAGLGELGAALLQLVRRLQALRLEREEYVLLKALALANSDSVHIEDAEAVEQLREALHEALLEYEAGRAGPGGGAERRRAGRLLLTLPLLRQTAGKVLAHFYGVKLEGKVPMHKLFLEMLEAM
Assay: TR-FRET assay (disruption of co-activator peptide binding to ERR1 LBD)
Assay type: biochemical
Details: 6 nM 6His-ERR1LBD, 6 nM GST-SRC-2 peptide; average of 3 independent experiments
Outline: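 His-tagged ERR1 ligand-binding domain and GST-labelled SRC-2 peptide, each 6 nM, equilibrated at 25° C for 4-18 h in Tris pH 8/Hepes/KCl/DTT/delipidated BSA buffer. Compound-induced loss of co-activator binding read as Eu cryptate→XL665 energy transfer; values from hyperbolic curve fits averaged over 3 independent runs.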

Compound	EC50
CS(=O)(=O)NCCN1C(=O)S/C(=C\c2ccc3c(cnn3Cc3ccc(Cl)cc3C(F)(F)F)c2)C1=O [Compound 393, N-{2-[(5Z)-5-({1-[4-Chloro-2-(trifluoromethyl)benzyl]-1H-indazol-5-yl}methylidene)-2,4-dioxo-1,3-thiazolidin-3-yl]ethyl}methanesulfonamide]	32 nM
CCNCCN1C(=O)S/C(=C\c2ccc3c(cnn3Cc3ccc(Cl)cc3C(F)(F)F)c2)C1=O [Compound 47, (5Z)-5-({1-[4-Chloro-2-(trifluoromethyl)benzyl]-1H-indazol-5-yl}methylidene)-3-[2-(ethylamino)ethyl]-1,3-thiazolidine-2,4-dione]	17 nM
COC(=O)N1CCN(CCN2C(=O)S/C(=C\c3ccc4c(cnn4Cc4ccc(Cl)cc4C(F)(F)F)c3)C2=O)S1(=O)=O [Compound 339, Methyl 5-{2-[(5Z)-5-({1-[4-chloro-2-(trifluoromethyl)benzyl]-1H-indazol-5-yl}methylidene)-2,4-dioxo-1,3-thiazolidin-3-yl]ethyl}-1,2,5-thiadiazolidine-2-carboxylate 1,1-dioxide]	106 nM
Cn1cncc1CN1C(=O)S/C(=C\c2ccc3c(cnn3Cc3ccc(Cl)cc3C(F)(F)F)c2)C1=O [Compound 139, (5Z)-5-({1-[4-Chloro-2-(trifluoromethyl)benzyl]-1H-indazol-5-yl}methylidene)-3-[(1-methyl-1H-imidazol-5-yl)methyl]-1,3-thiazolidine-2,4-dione]	16 nM
O=C1S/C(=C\c2ccc3c(cnn3Cc3ccc(Cl)cc3C(F)(F)F)c2)C(=O)N1C[C@@H]1CNCCO1 [Compound 183, (5Z)-5-({1-[4-Chloro-2-(trifluoromethyl)benzyl]-1H-indazol-5-yl}methylidine)-3-[(2S)-morpholin-2-ylmethyl]-1,3-thiazolidine-2,4-dione]	170 nM
Cc1nn(Cc2ccc(Cl)cc2C(F)(F)F)c2ccc(/C=C3\SC(=O)N(CC(=O)NS(=O)(=O)N(C)C)C3=O)cc12 [Compound 39, 2-[(5Z)-5-({1-[4-Chloro-2-(trifluoromethyl)benzyl]-3-methyl-1H-indazol-5-yl}methylidene)-2,4-dioxo-1,3-thiazolidin-3-yl]-N-(dimethylsulfamoyl)acetamide]	43 nM
CC(=O)NCCN1C(=O)S/C(=C\c2ccc3c(cnn3Cc3ccc(Cl)cc3C(F)(F)F)c2)C1=O [Compound 389, N-{2-[(5Z)-5-({1-[4-Chloro-2-(trifluoromethyl)benzyl]-1H-indazol-5-yl}methylidene)-2,4-dioxo-1,3-thiazolidin-3-yl]ethyl}acetamide]	26 nM
CS(=O)(=O)n1ccnc1CN1C(=O)S/C(=C\c2ccc3c(cnn3Cc3ccc(Cl)cc3C(F)(F)F)c2)C1=O [Compound 410, (5Z)-5-({1-[4-Chloro-2-(trifluoromethyl)benzyl]-1H-indazol-5-yl}methylidene)-3-{[1-(methylsulfonyl)-1H-imidazol-2-yl]methyl}-1,3-thiazolidine-2,4-dione]	25 nM
O=C1S/C(=C\c2ccc3c(cnn3Cc3ccc(Cl)cc3C(F)(F)F)c2)C(=O)N1CCN1CCC(F)(F)C1 [Compound 116, (5Z)-5-({1-[4-Chloro-2-(trifluoromethyl)benzyl]-1H-indazol-5-yl}methylidene)-3-[2-(3,3-difluoropyrrolidin-1-yl)ethyl]-1,3-thiazolidine-2,4-dione]	180 nM
N[C@H]1C[C@H](CN2C(=O)S/C(=C\c3ccc4c(cnn4Cc4ccc(Cl)cc4C(F)(F)F)c3)C2=O)C1 [Compound 100, (5Z)-3-[(trans-3-Aminocyclobutyl)methyl]-5-({1-[4-chloro-2-(trifluoromethyl)benzyl]-1H-indazol-5-yl}methylidene)-1,3-thiazolidine-2,4-dione]	46 nM
O=C(O)CN1C(=O)S/C(=C\c2ccc3c(cnn3Cc3ccc(Cl)cc3C(F)(F)F)c2F)C1=O [Compound 347, [(5Z)-5-({1-[4-Chloro-2-(trifluoromethyl)benzyl]-4-fluoro-1H-indazol-5-yl}methylidene)-2,4-dioxo-1,3-thiazolidin-3-yl]acetic acid]	116 nM
Cc1nn(Cc2ccc(Cl)cc2C(F)(F)F)c2ccc(/C=C3\SC(=O)N(CCN4CCCC4)C3=O)cc12 [Compound 41, (5Z)-5-({1-[4-Chloro-2-(trifluoromethyl)benzyl]-3-methyl-1H-indazol-5-yl}methylidene)-3-(2-pyrrolidin-1-ylethyl)-1,3-thiazolidine-2,4-dione]	9 nM
O=C1S/C(=C\c2ccc3c(cnn3Cc3ccc(Cl)cc3C(F)(F)F)c2)C(=O)N1CCNC(=O)C(F)(F)F [Compound 390, N-{2-[(5Z)-5-({1-[4-Chloro-2-(trifluoromethyl)benzyl]-1H-indazol-5-yl}methylidene)-2,4-dioxo-1,3-thiazolidin-3-yl]ethyl}-2,2,2-trifluoroacetamide]	64 nM
O=C1S/C(=C\c2ccc3c(cnn3Cc3ccc(Cl)cc3C(F)(F)F)c2)C(=O)N1CCN1CC(O)C1 [Compound 115, (5Z)-5-({1-[4-Chloro-2-(trifluoromethyl)benzyl]-1H-indazol-5-yl}methylidene)-3-[2-(3-hydroxyazetidin-1-yl)ethyl]-1,3-thiazolidine-2,4-dione]	130 nM
O=C1S/C(=C\c2ccc3c(c2)nnn3Cc2ccc(Cl)cc2C(F)(F)F)C(=O)N1CCN1CCCC1 [Compound 258, (5Z)-5-({1-[4-Chloro-2-(trifluoromethyl)benzyl]-1H-benzotriazol-5-yl}methylidene)-3-(2-pyrrolidin-1-ylmethyl)-1,3-thiazolidine-2,4-dione]	24 nM
CN1CCN(N2C(=O)S/C(=C\c3ccc4c(cnn4Cc4ccc(Cl)cc4C(F)(F)F)c3)C2=O)CC1 [Compound 349, (5Z)-5-({1-[4-Chloro-2-(trifluoromethyl)benzyl]-1H-indazol-5-yl}methylidene)-3-(4-methylpiperazin-1-yl)-1,3-thiazolidine-2,4-dione]	24 nM
O=C1S/C(=C\c2ccc3c(cnn3Cc3ccc(Cl)cc3C(F)(F)F)c2)C(=O)N1CC1(F)CCN(CCO)CC1 [Compound 305, (5Z)-5-({1-[4-Chloro-2-(trifluoromethyl)benzyl]-1H-indazol-5-yl}methylidene)-3-{[4-fluoro-1-(2-hydroxyethyl)piperidin-4-yl]methyl}-1,3-thiazolidine-2,4-dione]	3 nM

Continued by falling EC50, values first:

EC50	Compound
300 nM	CN(C)CCCN1C(=O)S/C(=C\c2ccc3c(ccn3Cc3ccc(C#N)cc3C(F)(F)F)c2)C1=O [Compound 247, 4-({5-[(Z)-{3-[3-(Dimethylamino)propyl]-2,4-dioxo-1,3-thiazolidin-5-ylidene}methyl]-1H-indol-1-yl}methyl)-3-(trifluoromethyl)benzonitrile]
100 nM	O=C1S/C(=C\c2ccc3c(ccn3Cc3ccc(C(F)(F)F)cc3C(F)(F)F)c2)C(=O)N1CCO [Compound 242, (5Z)-5-[(1-{[2,4-Bis(trifluoromethyl)phenyl]methyl}-1H-indol-5-yl)methylidene]-3-(2-hydroxyethyl)-1,3-thiazolidine-2,4-dione]
50 nM	O=C1S/C(=C\c2ccc3c(cnn3Cc3ccc(C(F)(F)F)cc3C(F)(F)F)c2)C(=O)N1C[C@H]1COCCN1 [Compound 196, (5Z)-5-({1-[2,4-Bis(trifluoromethyl)benzyl]-1H-indazol-5-yl}methylidene)-3-[(3S)-morpholin-3-ylmethyl]-1,3-thiazolidine-2,4-dione]
40 nM	NS(=O)(=O)NCCN1C(=O)S/C(=C\c2ccc3c(cnn3Cc3ccc(Cl)cc3C(F)(F)F)c2)C1=O [Compound 50, N-{2-[(5Z)-5-({1-[4-Chloro-2-(trifluoromethyl)benzyl]-1H-indazol-5-yl}methylidene)-2,4-dioxo-1,3-thiazolidin-3-yl]ethyl}sulfamide]
37 nM	O=C1S/C(=C\c2ccc3c(cnn3Cc3ccc(Cl)cc3C(F)(F)F)c2)C(=O)N1C1CNC1 [Compound 102, (5Z)-3-Azetidin-3-yl-5-({1-[4-chloro-2-(trifluoromethyl)benzyl]-1H-indazol-5-yl}methylidene)-1,3-thiazolidine-2,4-dione]
32 nM	CN1C(=O)S/C(=C\c2ccc3c(cnn3Cc3ccc(Cl)cc3C(F)(F)F)c2)C1=O [Compound 127, (5Z)-5-({1-[4-Chloro-2-(trifluoromethyl)-benzyl]-1H-indazol-5-yl}methylidene)-3-methyl-1,3-thiazolidine-2,4-dione]
22 nM	O=C1S/C(=C\c2ccc3c(cnn3Cc3ccc(Cl)cc3C(F)(F)F)c2)C(=O)N1N1CCNCC1 [Compound 351, (5Z)-5-({1-[4-Chloro-2-(trifluoromethyl)benzyl]-1H-indazol-5-yl}methylidene)-3-piperazin-1-yl-1,3-thiazolidine-2,4-dione]
21 nM	CS(=O)(=O)NCCN1C(=O)S/C(=C\c2ccc3c(cnn3Cc3ccc(Cl)cc3C(F)(F)F)c2)C1=O [Compound 158, N-{2-[(5Z)-5-({1-[4-Chloro-2-(trifluoromethyl)benzyl]-1H-indazol-5-yl}methylidene)-2,4-dioxo-1,3-thiazolidin-3-yl]ethyl}methanesulfonamide]
15 nM	[2H]C([2H])([2H])N1CC[C@@H](N2C(=O)S/C(=C\c3ccc4c(cnn4Cc4ccc(Cl)cc4C(F)(F)F)c3)C2=O)[C@H](F)C1 (relative stereo) [Compound 329, (5Z)-5-({1-[4-Chloro-2-(trifluoromethyl)benzyl]-1H-indazol-5-yl}methylidene)-3-[trans-3-fluoro-1-(1,1,1-d3)-methylpiperidin-4-yl]-1,3-thiazolidine-2,4-dione]
